In patent US20050256034A1, “Dioxolane analogs for improved inter-cellular delivery” (priority 2000, published 2005):

What was measured:
Type in all cases: cell-based
hCNT3 = target: T1, hCNT3 (Homo sapiens, UniProt Q9HAS3); assay: Inhibition of [3H]uridine uptake by cib-activity in differentiated HL-60 cells; conditions: 100-fold non-radioactive excess
T1 construct: Troxacitabine uptake by cib-activity (hCNT3) in differentiated HL-60 cells; endogenous in cells; host or cells: differentiated HL-60 cells
T1 sequence (Q9HAS3 1-691): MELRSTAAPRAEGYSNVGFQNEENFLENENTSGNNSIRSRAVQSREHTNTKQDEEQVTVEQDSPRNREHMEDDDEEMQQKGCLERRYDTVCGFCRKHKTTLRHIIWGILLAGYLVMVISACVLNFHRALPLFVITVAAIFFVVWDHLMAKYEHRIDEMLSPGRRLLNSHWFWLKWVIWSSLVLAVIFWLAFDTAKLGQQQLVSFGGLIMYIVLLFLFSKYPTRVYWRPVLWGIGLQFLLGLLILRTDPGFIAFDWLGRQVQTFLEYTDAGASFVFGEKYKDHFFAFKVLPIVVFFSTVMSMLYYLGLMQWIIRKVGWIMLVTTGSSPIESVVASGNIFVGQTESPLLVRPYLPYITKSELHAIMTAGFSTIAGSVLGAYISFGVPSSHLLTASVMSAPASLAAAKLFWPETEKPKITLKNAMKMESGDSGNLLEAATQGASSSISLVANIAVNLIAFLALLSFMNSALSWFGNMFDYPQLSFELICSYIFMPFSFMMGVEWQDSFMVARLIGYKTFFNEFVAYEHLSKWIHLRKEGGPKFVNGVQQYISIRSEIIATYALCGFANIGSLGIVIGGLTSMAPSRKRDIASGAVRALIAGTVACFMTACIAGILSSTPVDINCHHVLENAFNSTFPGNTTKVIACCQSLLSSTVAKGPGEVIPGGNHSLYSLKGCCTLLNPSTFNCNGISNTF

[1] = target: T2, hENT1 (es) in DU145 cells (Homo sapiens, UniProt Q99808); assay: Cellular uptake assay of 3H-labelled nucleoside, NT inhibitor and self-competition
T2 construct: functional es-mediated transport (hENT1) in DU145 cells; endogenous in cells; host or cells: DU145 cells
T2 sequence (Q99808 1-456): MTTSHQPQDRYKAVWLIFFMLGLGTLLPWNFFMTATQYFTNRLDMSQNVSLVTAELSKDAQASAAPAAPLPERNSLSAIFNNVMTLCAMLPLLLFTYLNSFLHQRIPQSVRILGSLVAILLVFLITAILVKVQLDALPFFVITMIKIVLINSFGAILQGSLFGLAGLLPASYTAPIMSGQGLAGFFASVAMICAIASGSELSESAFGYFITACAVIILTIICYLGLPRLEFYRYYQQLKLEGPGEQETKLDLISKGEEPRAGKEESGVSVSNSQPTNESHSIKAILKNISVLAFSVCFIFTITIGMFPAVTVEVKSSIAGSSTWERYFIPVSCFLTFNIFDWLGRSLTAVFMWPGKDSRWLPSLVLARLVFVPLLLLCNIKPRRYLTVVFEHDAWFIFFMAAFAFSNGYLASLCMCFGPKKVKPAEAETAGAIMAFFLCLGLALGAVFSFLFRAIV
Procedure: FIG. 2 Comparative uptake of 10 μM [^3H]troxacitabine (0-240 min) (Panel B) and 10 μM [^3H]D-uridine (0-6 min) (Panel A) in the presence (▴) or absence ( ? ) of the hENT1 inhibitor, 100 nM NBMPP, in DU145 cells.
(§1) Cancer Res., 56: 4187-4191.
(FIG. 2A). In contrast, low levels of [^3H]troxacitabine were taken up and uptake was not affected by the presence of NBMPR (FIG. 2B).
DU145 cells: This experiment is designed to show whether [^3H]L-troxacitabine (10 μM) is taken up by DU145 cells and if the rate of uptake is affected by the addition of high concentrations (1 mM) of non-radioactive troxacitabine.

CEM cells = assay: CellTiter 96 cell proliferation assay, 48 h exposure; conditions: Homo sapiens, CCRF-CEM, 48 h, read-out: Chemosensitivity, 50% of the dose response curve (EC50), CEM + NBMPR (100 nM), 48 h exposure, mean ± SD
Procedure: The chemosensitivity of suspension cells lines (e.g., CEM or CEM-derivatives) is assessed using the CellTiter 96 ? proliferation assay. […] Chemosensitivity is expressed as 50% (ECso) of the dose response curve determined, e.g., using GraphPad Prism 2.01 (GraphPad Software, San Diego, Calif.). Adherent cell lines (e.g., DU145 or DU145^R) are seeded (˜10^5 cells) in triplicate dishes, 24 h before drug exposure. Growth inhibition is determined by trypsinization and counting cells electronically.

CEM cells (es, hENT1) = assay: Cellular uptake assay of 3H-labelled nucleoside; conditions: 30 μM, 6-min time course, compared with uridine
Procedure: (§2) FIG. 1 Comparative uptake of 30 μM [^3H]-troxacitabine in CEM (Panel A) and CEM/APAC8C (Panel B) cells. [^3H]-Uridine uptake in either the presence or absence of the hENT1 inhibitor, NBMPR or 5 mM non-radioactive uridine was included for comparison as a control substrate.
as §1
(§3) The transport of [^3H]uridine was inhibited in the presence either of the hENT1 inhibitor, NBMPR, or excess non-radioactive uridine.

CEM/ARAC8C cells = assay: Cellular uptake assay of 3H-labelled nucleoside; conditions: 30 μM, 6-min time course, compared with uridine
Procedure: as §2, §1, §3

effect on [3H]uridine uptake by hCNT3 (hCNT3): no effect on uridine uptake | effect of non-radioactive troxacitabine (1 mM) on uptake ([1]; 10 μM labelled): no significant effect | effect of NBMPR on uptake ([1]; 10 μM, 0-240 min, 100 nM NBMPR): not affected | rate of uptake ([1]; 10 μM, short (0-30 s) and prolonged exposures (0-4 h)): very slow | uptake of 3H-labelled nucleoside (CEM cells (es, hENT1)): taken up to a lesser degree | uptake of 3H-labelled nucleoside (CEM/ARAC8C cells): taken up to a lesser degree
Structure (SMILES): Nc1ccn([C@@H]2CO[C@H](CO)O2)c(=O)n1 [Troxacitabine, troxacitabine]
EC50 (CEM cells): 210 ± 19 nM
